Source: patent US20230286973A1, “PROTEIN SECRETION INHIBITORS” (KEZAR LIFE SCIENCES, priority 2020, published 2023)

Key:
[1] = Liver Microsome Stability Assay (human); conditions: human liver microsomes, with NADPH, 1.0 uM compound
Procedure: (§1) Stability of a compound was assessed in the presence of liver microsomes from various sources—mouse, rat, monkey and human liver microsomes. 1.0 uM compound, 0.4% DMSO in 0.1 M Potassium Phosphate with 1.0 mg/mL liver microsomes, were incubated at 37° C. with or without 1 mM NADPH. The samples were quenched at 0, and 30 minutes.

[2] = system: PD1-ss+10aa/Gaussia Luciferase; experiment: Dox-Induced PD1-ss-Gluc Assay; type: cell-based; conditions: 24 hr Dox induction; 293FRT/TO cells; read-out: 24 hr Dox Inducible PD1ssGluc 293FRT/TO: Mean IC50
Summary of the method: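 Flp-In 293 T-REx cells stably carrying a doxycycline-inducible Gaussia luciferase fused to the PD1 signal sequence plus 10 aa were plated the day before. Compound dilutions in DMSO/media containing doxycycline were then added and incubated at 37 °C, 5% CO2. Data for undefined stereochemistry refer to stereoisomer mixtures.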

[3] = system: HER3-ss+4aa/Gaussia Luciferase; experiment: Dox-Induced Her3-ss-Gluc Assay; type: cell-based; conditions: 24 hr Dox induction; 293FRT/TO cells; read-out: 24 hr Dox Inducible Her3(ss + 4)Gluc 293FRT/TO: Mean IC50
Summary of the method: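 Expression of a Gaussia luciferase reporter carrying the HER3 signal sequence plus 4 amino acids is induced by doxycycline in stably transfected Flp-In 293 T-REx cells. Compounds are added with doxycycline at 37° C., 5% CO2. Undefined stereocentres denote stereoisomer mixtures.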

[4] = Liver Microsome Stability Assay (mouse); conditions: mouse liver microsomes, with NADPH, 1.0 uM compound
Procedure: as §1

[5] = system: IL-2-FL/Gaussia Luciferase; experiment: Dox Induced IL2-FL-Gluc Assay; type: cell-based; conditions: for IC50: 24 hr Dox induction, 293FRT/TO cells, read-out: 24 hr Dox Inducible IL2FLGluc 293FRT/TO: Mean IC50; for 24 hr Dox Inducible IL2FLGluc 293FRT/TO: IL2/PD1: ratio of IL2FLGluc IC50 to PD1ssGluc IC50
Summary of the method: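 Reporter is Gaussia luciferase fused to the 3′ end of full-length IL-2 (aa 1-153), expressed from a doxycycline-inducible T-REx construct in stably selected Flp-In 293 cells. Compounds were co-added with doxycycline and incubated at 37° C, 5% CO2.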

[6] = Liver Microsome Stability Assay (rat); conditions: rat liver microsomes, with NADPH, 1.0 uM compound
Procedure: as §1

[7] = system: multiple myeloma cell line U266B1; experiment: U266 Cell Viability Assay; type: cell-based, human; conditions: Homo sapiens, U-266, 48 h, U266B1 cells, Celltiter-Glo
Summary of the method: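 48 h treatment, 37° C./5% CO2, RPMI 1640 + 10% FBS; viability by CellTiter-Glo luminescence.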

[8] = Liver Microsome Stability Assay (monkey); conditions: monkey liver microsomes, with NADPH, 1.0 uM compound
Procedure: as §1

[9] = system: TNFα-FL/Gaussia Luciferase; experiment: Dox Induced TNFα-FL-Gluc Assay; type: cell-based; conditions: for IC50: 24 hr Dox induction, 293FRT/TO cells, read-out: 24 hr Dox Inducible TNFaFLGluc 293FRT/TO: Mean IC50; for 24 hr Dox Inducible TNFaFLGluc 293FRT/TO: TNF/PD1: ratio of TNFaFLGluc IC50 to PD1ssGluc IC50
Summary of the method: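 Cells are seeded one day ahead, then treated with compound plus doxycycline at 37 °C, 5% CO2. The stable Flp-In 293 T-REx line expresses full-length TNFα (amino acids 1-233) with Gaussia luciferase fused to its 3′ end, inducibly via T-REx.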

[10] = system: multiple myeloma cell line NCI-H929; experiment: H929 Cell Viability Assay; type: cell-based, human; conditions: Homo sapiens, NCI-H929, 48 h, NCI-H929 cells, Celltiter-Glo
Summary of the method: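 Plate the myeloma cells in RPMI 1640 with 10% FBS, add serially diluted compound, incubate for 48 hours at 37° C, then add CellTiter-Glo and read luciferase signal.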

| Compound | Liver Microsome Stability (Multiple Species): Human - % Remaining after 30 min w/NADPH [1] [%] | IC50 [2] [nM] | IC50 [3] [µM] | Liver Microsome Stability (Multiple Species): Mouse - % Remaining after 30 min w/NADPH [4] [%] | IC50 [5] [µM] | Liver Microsome Stability (Multiple Species): Rat - % Remaining after 30 min w/NADPH [6] [%] | EC50 [7] [µM] | Liver Microsome Stability (Multiple Species): Monkey - % Remaining after 30 min w/NADPH [8] [%] | IC50 [9] [µM] | EC50 [10] [µM] | 24 hr Dox Inducible IL2FLGluc 293FRT/TO: IL2/PD1 [5] | 24 hr Dox Inducible TNFaFLGluc 293FRT/TO: TNF/PD1 [9] |
| --- | --- | --- | --- | --- | --- | --- | --- | --- | --- | --- | --- | --- |
| CC(C)c1cc(/C=C/c2csc(NC(=O)c3cccn3Cc3ccnc(F)c3)n2)n(C)n1 [Compound B94, (E)-1-((2-fluoropyridin-4-yl)methyl)-N-(4-(2-(3-isopropyl-1-methyl-1H-pyrazol-5-yl)vinyl)thiazol-2-yl)-1H-pyrrole-2-carboxamide] | 0.55 | 1020 | 0.877 | 20 | > 25 | 31.1 | > 25 | 0.06 | > 25 | > 25 | >24 | >24.5 |
| CC(C)n1ccnc1/C=C/c1csc(NC(=O)c2cccn2Cc2ccnc(F)c2)n1 [Compound B95, (E)-1-((2-fluoropyridin-4-yl)methyl)-N-(4-(2-(1-isopropyl-1H-imidazol-2-yl)vinyl)thiazol-2-yl)-1H-pyrrole-2-carboxamide] | 0.04 | 782 | > 25 | 0.08 | > 25 | 0.54 | > 25 | 0.03 | > 25 | > 25 | >32 | >32.0 |
| CC1CCc2c(/C=C/c3csc(NC(=O)c4cccn4Cc4ccnc(F)c4)n3)ncn2C1 (stereo not drawn) [Compound B98, (E)-1-((2-fluoropyridin-4-yl)methyl)-N-(4-(2-(6-methyl-5,6,7,8-tetrahydroimidazo[1,5-a]pyridin-1-yl)vinyl)thiazol-2-yl)-1H-pyrrole-2-carboxamide] | 0.2 | 30.7 | 1.59 | 6.81 | 2.29 | 6.91 | > 25 | 0.72 | > 25 | > 25 | 74 | >814 |
| Cc1cc(C(=O)Nc2nc(/C=C/c3cn(C(C)C)cn3)cs2)n(Cc2ccnc(F)c2)c1 [Compound B99, (E)-1-((2-fluoropyridin-4-yl)methyl)-N-(4-(2-(1-isopropyl-1H-imidazol-4-yl)vinyl)thiazol-2-yl)-4-methyl-1H-pyrrole-2-carboxamide] | 4.91 | 880 | 10.1 | 49.5 | > 25 | 49.7 | > 25 | 2.99 | > 25 | > 25 | >28 | >28.4 |

Further molecules by falling IC50 [2], results first:

| Liver Microsome Stability (Multiple Species): Human - % Remaining after 30 min w/NADPH [1] [%] | IC50 [2] [nM] | IC50 [3] [µM] | Liver Microsome Stability (Multiple Species): Mouse - % Remaining after 30 min w/NADPH [4] [%] | IC50 [5] [µM] | Liver Microsome Stability (Multiple Species): Rat - % Remaining after 30 min w/NADPH [6] [%] | EC50 [7] [µM] | Liver Microsome Stability (Multiple Species): Monkey - % Remaining after 30 min w/NADPH [8] [%] | IC50 [9] [µM] | EC50 [10] [µM] | Compound | 24 hr Dox Inducible IL2FLGluc 293FRT/TO: IL2/PD1 [5] | 24 hr Dox Inducible TNFaFLGluc 293FRT/TO: TNF/PD1 [9] |
| --- | --- | --- | --- | --- | --- | --- | --- | --- | --- | --- | --- | --- |
| 0.85 | 686 | 2.73 | 12.7 | 11 | 11.5 | > 25 | 0.03 | > 25 | 20.9 | CC(C)n1cc(/C=C/c2csc(NC(=O)c3cccn3Cc3ccnc(F)c3)n2)nc1C#N [Compound B93, (E)-N-(4-(2-(2-cyano-1-isopropyl-1H-imidazol-4-yl)vinyl)thiazol-2-yl)-1-((2-fluoropyridin-4-yl)methyl)-1H-pyrrole-2-carboxamide] | 16 | >36.4 |
| 0.79 | 304 | 3.3 | 8.33 | 7.59 | 13.6 | > 25 | 0.19 | > 25 | 20.7 | CC(C)c1cc(/C=C/c2csc(NC(=O)c3cccn3Cc3ccnc(F)c3)n2)nn1C [Compound B96, (E)-1-((2-fluoropyridin-4-yl)methyl)-N-(4-(2-(5-isopropyl-1-methyl-1H-pyrazol-3-yl)vinyl)thiazol-2-yl)-1H-pyrrole-2-carboxamide] | 25 | >82.3 |
| 0.3 | 244 | 4.79 | 13.8 | 7.51 | 10.8 | > 25 | 0.13 | > 25 | > 25 | CC1CCn2cnc(/C=C/c3csc(NC(=O)c4cccn4Cc4ccnc(F)c4)n3)c2C1 (stereo not drawn) [Compound B97, (E)-1-((2-fluoropyridin-4-yl)methyl)-N-(4-(2-(7-methyl-5,6,7,8-tetrahydroimidazo[1,5-a]pyridin-1-yl)vinyl)thiazol-2-yl)-1H-pyrrole-2-carboxamide] | 31 | >103 |
| 0.19 | 72.4 | > 25 | 6.38 | 12.1 | 2.02 | > 25 | 0.04 | > 25 | 22.8 | O=C(Nc1nc(/C=C/c2cn(C3CCOCC3)cn2)cs1)c1cccn1Cc1ccnc(F)c1 [Compound B92, (E)-1-((2-fluoropyridin-4-yl)methyl)-N-(4-(2-(1-(tetrahydro-2H-pyran-4-yl)-1H-imidazol-4-yl)vinyl)thiazol-2-yl)-1H-pyrrole-2-carboxamide] | 170 | >345 |
| 0.38 | 11.6 | 4.28 | 6.67 | 6.53 | 2.51 | 19.5 | 0.25 | 19 | 15.3 | CC1CCCc2c(/C=C/c3csc(NC(=O)c4cccn4Cc4ccnc(F)c4)n3)ncn21 (stereo not drawn) [Compound B101, (E)-1-((2-fluoropyridin-4-yl)methyl)-N-(4-(2-(5-methyl-5,6,7,8-tetrahydroimidazo[1,5-a]pyridin-1-yl)vinyl)thiazol-2-yl)-1H-pyrrole-2-carboxamide] | 560 | 1640 |
